Experimental data reported in EP3895695A1, “SUPERCRITICAL CARBON DIOXIDE-BASED METHODOLOGY TO FORMULATE BIOACTIVE PREPARATIONS” (Universidad Autónoma de Madrid, priority 2020, dated 2021).

Legend:
mice = settings: intravenous administration; cited from earlier work
[1] = HPLC quantification of quercetin, rosmarinic acid and carnosic acid in BIOSAS lipid products; type: physicochemical; settings: for amount dispersed in oil: rosemary BIOSAS dispersion
Source text: Carnosic acid and rosmarinic acid were identified and quantified in the case of BIOSAS rosemary samples following the procedures described by […]. Garcia-Risco, T. Fornari, G. Reglero, Isolation of carsonic acid from rosemary extracts using semi-preparative supercritical fluid chromatography, J. Chromatogr. A. 1286 (2013) 208-215. doi:10.1016/j.chroma.2013.02.044 using a HPLC Prominence-i LC-2030C 3D Plus (Shimadzu) equipped with a RP-C18 (250 × 4.6 mm; 3 μm) chromatography column. The mobile phase consisted of 0.1 % of phosphoric acid in water (solvent A) and acetonitrile (solvent B) applying the following gradient: 0-8 min, 77 % A, 8-25 min, 25 % A, 25-40 min 25 % A and the 40-45 min 77 % A. Initial conditions were gained in 5 min. The flow rate was constant at 0.7 ml/min. Injection volume was 20 μl and the detection was accomplished using a diode array detection system, storing the signal at a wavelength of 230, 280 and 350 nm. In the case of quercetin BIOSAS dispersion, HPLC analysis was carried out as previously described by Wei et al.. A Prominence-i LC-2030C 3D Plus (Shimadzu) equipped with a quaternary solvent delivery system, an autosampler and DAD detector and RP-C18 (250 × 4.6 mm; 3 μm) was used. The column temperature was set at 25 °C. The mobile phase consists of acetonitrile (A) and 0.026% aqueous H3PO4 (v/v), applying the following gradient elution: at 0-20 min, 20%-25% A, 20-30 min, 25%-34% A, 30-50 min, 34%-50% A, 50-60 min, 50%-60% A and 60-80 min, 60% A. After 5 min, the initial conditions were achieved. The flow rate was 0.7 ml/min and was kept constant during analysis. Injection volume was 20 μl and detection was accomplished at 254, 280 and 370 nm.

Row | SMILES | LD50 (mice) [mg/kg] | amount dispersed in oil ([1]; argan oil) [mg/g] | amount dispersed in oil ([1]; flaxseed oil) [mg/g] | concentration of quercetin in the flaxseed oil ([1]; HPLC analysis, BIOSAS 20 MPa, 313.15 K) [% mass] | amount dispersed by BIOSAS process ([1]; in high molecular weight triacylglycerols (flaxseed oil), 313.15 K) [mg/g]
1 | O=C(/C=C/c1ccc(O)c(O)c1)O[C@H](Cc1ccc(O)c(O)c1)C(=O)O [rosmarinic acid] | 561 | ~0.40 | 0.51 | – | –
2 | CC(C)c1cc2c(c(O)c1O)[C@@]1(C(=O)O)CCCC(C)(C)[C@@H]1CC2 [carnosic acid, Carnosic acid] | – | 4.90 | 6.39 | – | –
3 | O=c1c(O)c(-c2ccc(O)c(O)c2)oc2cc(O)cc(O)c12 [quercetin, 2-(3,4-Dihydroxyphenyl)-3,5,7-trihydroxy-4H-1-benzopyran-4-one,3,3',4',5,6-Pentahydroxyflavone - Quercetin] | – | – | – | 1.55 ± 0.05 | > 15
